# Laboratory results as given in patent US11912668B2, “GCN2 and perk kinase inhibitors and methods of use thereof” (Deciphera Pharmaceuticals, LLC, priority 2020, dated 2024).
# How the values were obtained:
# [1] = target: GCN2 kinase (Homo sapiens (Human), UniProt Q9P2K8); experiment: Biochemical assay for GCN2 (TR-FRET kinase activity assay); settings: 1 mM ATP, 3-hour incubation
# Experimental: Activity of GCN2 kinase was determined using a TR-FRET kinase activity assay (e.g. Riddle et al. Analytical Biochemistry (2006) 356(1) 108-116). Assays were conducted in 384-well plates (13 μL assay volume) using 2 nM GCN2 (Carna Biosciences), 130 nM GFP-EIf2α (Invitrogen), 0.2 mg/mL E. coli tRNA (sigma) and 1 mM ATP in kinase buffer (Invitrogen). Inhibition of GCN2 was measured by adding serial diluted test compound (final assay concentration of 0.5% DMSO) followed by a 3-hour incubation. Tb-peIF2α (pSer52) antibody (Invitrogen) (2 nM final assay concentration) in kinase buffer containing ETDA (final assay concentration of 20 mM) was added. After a 60 min incubation at room temperature, TR-FRET was monitored using an excitation wavelength of 340 nm and emission wavelengths of 490 nm and 520 nm. The emission ratio (520/490) at each compound concentration of was converted to percent inhibition using controls (i.e. reaction with no test compound and reaction with a known inhibitor) and IC50 values were calculated by fitting a four-parameter sigmoidal curve to the data using Prism (GraphPad software).
# [2] = target: PERK kinase (Homo sapiens (Human), UniProt Q9NZJ5); experiment: Biochemical assay for PERK (coupled pyruvate kinase/lactate dehydrogenase assay); settings: 1 mM ATP, rate from 2-3 h time frame
# Experimental: Activity of PERK kinase was determined spectroscopically using a coupled pyruvate kinase/lactate dehydrogenase assay that continuously monitors the ATP hydrolysis-dependent oxidation of NADH (e.g., Schindler et al. Science (2000) 289: 1938-1942). Assays were conducted in 384-well plates (100 μL final volume) using 10 nM PERK (from Beryllium), 0.25 mg/mL Myelin Basic Protein substrate, 1.5 units pyruvate kinase, 2.1 units lactate dehydrogenase, 1 mM phosphoenol pyruvate, 0.28 mM NADH and 1 mM ATP in assay buffer (100 mM Tris, pH 7.5, 15 mM MgCl2, 0.5 mM DTT, 0.004% (w/v) BSA, and 0.004% Triton X-100). Inhibition of PERK was measured by adding serial diluted test compound (final assay concentration of 1% DMSO). A decrease in absorption at 340 nm was monitored continuously for 6 hours at 30° C. on a multi-mode microplate reader (BioTek). The reaction rate was calculated using the 2-3 h time frame. The reaction rate at each concentration of compound was converted to percent inhibition using controls (i.e. reaction with no test compound and reaction with a known inhibitor) and IC50 values were calculated using software routines in Prism (GraphPad software).
# [3] = system: CCRF-CEM leukemia cells; experiment: CCRF-CEM ASNase cell proliferation assay, phenotypic assay for cellular inhibition of GCN2; type: cell-based; settings: Homo sapiens; ASNase treated CCRF-CEM cells, 1 mU/mL ASNase, 72 h
# Experimental: CCRF-CEM leukemia cells (catalog #CCL-116) were obtained from the American Type Culture Collect (ATTC, Manassas, VA). Cells were grown in RPMI-1640 medium supplemented with 10% heat-inactivated fetal bovine serum (Invitrogen, Carlsbad, CA) and 1% Penicillin/Streptomycin/L-Glutamine at 37° C., 5% CO2, and 95% humidity. Cells were expanded until reaching one million cells per mL at which time they are subcultured or harvested for assay use. Ten thousand cells per well in 200 μL RPMI-1640 supplemented with 10% heat-inactivated fetal bovine serum and 1% Penicillin/Streptomycin were dispensed into a 96-well black clear bottom plate. A serial dilution of test compound and 1 mU/mL ASNase was added in triplicate and plates were incubated for 72 h at 37° C., 5% CO2, and 95% humidity. At the end of the incubation, 40 μL of a […] solution of resazurin (Sigma, St. Louis, MO) in PBS was added to each well of the plate and plates were incubated for an additional 6 h at 37° C., 5% CO2, and 95% humidity. Plates were read on a Synergy2 or equivalent reader (Biotek, Winooski VT) using an excitation of 540 nm and an emission of 600 nm. Data was analyzed using GraphPad Prism software (GraphPad, San Diego, CA) to calculate IC50 values.
# [4] = system: phospho-GCN2 (Thr899) in HCT116 colorectal cancer cells; experiment: HCT116 amino acid starved (-AA) phospho-GCN2 assay (Western blot); type: cell-based; settings: Homo sapiens, HCT-116, 4 h, read-out: HCT116-AA pGCN2 Western Blot
# Experimental: (§1) HCT116 colorectal cancer cells (catalog #CCL-247) were obtained from the American Type Culture Collect (ATTC, Manassas, VA). Briefly, cells were grown in RPMI 1640 supplemented with 10% heat inactivated fetal bovine serum (Invitrogen, Carlsbad, CA) and 1% Penicillin/Streptomycin/L-Glutamine at 37° C., 5% CO2, and 95% humidity. Cells were expanded until reaching 70-95% confluency at which point they were subcultured or harvested for assay use. Cells were seeded in 12-well culture plate at five hundred thousand cells per well in 1 mL complete growth medium and incubated overnight at 37° C., 5% CO2, and 95% humidity. The next day each well was replaced with 1 mL Earle's Balanced Salt Solution (EBSS, Invitrogen, Carlsbad, CA) supplemented with 10% Dialyzed Fetal Bovine Serum, 5.5 mM Glucose, 1% Penicillin/Streptomycin and 1% Vitamin solution (thermo #11120052). A serial dilution of test compound was dispensed into well. Plates were incubated for 4 h at 37° C., 5% CO2, and 95% humidity. At the end of the incubation, cells were washed with PBS supplemented with 1× Halt protease inhibitor, 1× Halt phosphatase inhibitor, 1× Sigma phosphatase inhibitor cocktail 2 and 1×EDTA and then lysed with M-PER Mammalian Protein Extraction Reagent supplemented with 3× of the inhibitor mix as described above. Cell lysates were sonicated with water bath sonicator (Qsonica, Newtown, CT) and supernatants were boiled with SDS buffer and reducing agent. Western blot was performed on each lysate to quantify phospho-GCN2 (Thr899), total GCN2, ATF4 and beta-Actin. Membranes were imaged with LI-COR Odyssey CLx Imaging System (LI-COR, Lincoln, NE). Data were analyzed using GraphPad Prism software (GraphPad, San Diego, CA) to calculate IC50 values.
# [5] = system: ATF4 in HCT116 colorectal cancer cells; experiment: HCT116 amino acid starved (-AA) ATF4 assay (Western blot); type: cell-based; settings: Homo sapiens, HCT-116, 4 h
# Experimental: as §1
# [6] = system: ATF4 in CCRF-CEM leukemia cells (PERK); experiment: CCRF-CEM TG ATF4 ELISA, phenotypic assay for cellular inhibition of PERK preactivated by thapsigargin; type: cell-based; settings: Homo sapiens; Thapsigargin (1 μM) stimulated CCRF-CEM cells
# Experimental: CCRF-CEM leukemia cells (catalog #CCL-116) were obtained from the American Type Culture Collection (ATTC, Manassas, VA). Briefly, cells were grown in RPMI-1640 medium supplemented with 10% heat-inactivated fetal bovine serum (Invitrogen, Carlsbad, CA) and 1% Penicillin/Streptomycin/L-Glutamine at 37° C., 5% CO2, and 95% humidity. Cells were expanded until reaching one million cells per mL at which time they were subcultured or harvested for assay use. One million five hundred thousand cells per well in 1 mL complete growth medium were dispensed into 12-well plates and incubated overnight. A serial dilution of test compound was added and cells were incubated at 37° C., 5% CO2, and 95% for three hours, then 1 μM thapsigargin was added and cells were incubated for an additional hour at 37° C., 5% CO2, and 95%. Cells were lysed then ATF4 levels were measured using an ELISA assay (Proteintech, Rosemont, IL). Absorbance was measured at 450 nm and 544 nM using a Synergy2 or equivalent reader (Biotek, Winooski VT). Data was analyzed using PRISM software (Graphpad, San Diego, CA) to calculate IC50 values.
# Chain of PERK kinase (Q9NZJ5 other isoform, or with tags, fused parts or gaps): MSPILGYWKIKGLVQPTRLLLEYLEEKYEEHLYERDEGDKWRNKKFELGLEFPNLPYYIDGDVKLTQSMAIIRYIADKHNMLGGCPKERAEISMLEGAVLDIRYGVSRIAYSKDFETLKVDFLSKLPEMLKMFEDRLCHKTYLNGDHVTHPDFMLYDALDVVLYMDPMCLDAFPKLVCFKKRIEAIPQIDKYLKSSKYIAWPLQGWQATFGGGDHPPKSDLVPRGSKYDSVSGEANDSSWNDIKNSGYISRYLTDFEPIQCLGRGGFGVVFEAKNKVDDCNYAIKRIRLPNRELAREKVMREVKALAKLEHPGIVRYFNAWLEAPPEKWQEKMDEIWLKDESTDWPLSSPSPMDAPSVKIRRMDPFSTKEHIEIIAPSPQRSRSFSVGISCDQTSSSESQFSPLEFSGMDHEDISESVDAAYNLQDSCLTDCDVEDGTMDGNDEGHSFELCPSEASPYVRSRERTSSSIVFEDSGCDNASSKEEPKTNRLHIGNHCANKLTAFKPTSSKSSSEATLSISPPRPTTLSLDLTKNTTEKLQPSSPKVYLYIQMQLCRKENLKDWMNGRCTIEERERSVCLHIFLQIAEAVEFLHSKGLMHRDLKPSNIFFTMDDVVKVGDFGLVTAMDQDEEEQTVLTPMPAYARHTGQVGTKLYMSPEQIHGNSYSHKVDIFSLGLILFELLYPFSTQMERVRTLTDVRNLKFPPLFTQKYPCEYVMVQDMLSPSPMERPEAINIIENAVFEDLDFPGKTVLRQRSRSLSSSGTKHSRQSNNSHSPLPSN
# Chain of GCN2 kinase (Q9P2K8 whole entry): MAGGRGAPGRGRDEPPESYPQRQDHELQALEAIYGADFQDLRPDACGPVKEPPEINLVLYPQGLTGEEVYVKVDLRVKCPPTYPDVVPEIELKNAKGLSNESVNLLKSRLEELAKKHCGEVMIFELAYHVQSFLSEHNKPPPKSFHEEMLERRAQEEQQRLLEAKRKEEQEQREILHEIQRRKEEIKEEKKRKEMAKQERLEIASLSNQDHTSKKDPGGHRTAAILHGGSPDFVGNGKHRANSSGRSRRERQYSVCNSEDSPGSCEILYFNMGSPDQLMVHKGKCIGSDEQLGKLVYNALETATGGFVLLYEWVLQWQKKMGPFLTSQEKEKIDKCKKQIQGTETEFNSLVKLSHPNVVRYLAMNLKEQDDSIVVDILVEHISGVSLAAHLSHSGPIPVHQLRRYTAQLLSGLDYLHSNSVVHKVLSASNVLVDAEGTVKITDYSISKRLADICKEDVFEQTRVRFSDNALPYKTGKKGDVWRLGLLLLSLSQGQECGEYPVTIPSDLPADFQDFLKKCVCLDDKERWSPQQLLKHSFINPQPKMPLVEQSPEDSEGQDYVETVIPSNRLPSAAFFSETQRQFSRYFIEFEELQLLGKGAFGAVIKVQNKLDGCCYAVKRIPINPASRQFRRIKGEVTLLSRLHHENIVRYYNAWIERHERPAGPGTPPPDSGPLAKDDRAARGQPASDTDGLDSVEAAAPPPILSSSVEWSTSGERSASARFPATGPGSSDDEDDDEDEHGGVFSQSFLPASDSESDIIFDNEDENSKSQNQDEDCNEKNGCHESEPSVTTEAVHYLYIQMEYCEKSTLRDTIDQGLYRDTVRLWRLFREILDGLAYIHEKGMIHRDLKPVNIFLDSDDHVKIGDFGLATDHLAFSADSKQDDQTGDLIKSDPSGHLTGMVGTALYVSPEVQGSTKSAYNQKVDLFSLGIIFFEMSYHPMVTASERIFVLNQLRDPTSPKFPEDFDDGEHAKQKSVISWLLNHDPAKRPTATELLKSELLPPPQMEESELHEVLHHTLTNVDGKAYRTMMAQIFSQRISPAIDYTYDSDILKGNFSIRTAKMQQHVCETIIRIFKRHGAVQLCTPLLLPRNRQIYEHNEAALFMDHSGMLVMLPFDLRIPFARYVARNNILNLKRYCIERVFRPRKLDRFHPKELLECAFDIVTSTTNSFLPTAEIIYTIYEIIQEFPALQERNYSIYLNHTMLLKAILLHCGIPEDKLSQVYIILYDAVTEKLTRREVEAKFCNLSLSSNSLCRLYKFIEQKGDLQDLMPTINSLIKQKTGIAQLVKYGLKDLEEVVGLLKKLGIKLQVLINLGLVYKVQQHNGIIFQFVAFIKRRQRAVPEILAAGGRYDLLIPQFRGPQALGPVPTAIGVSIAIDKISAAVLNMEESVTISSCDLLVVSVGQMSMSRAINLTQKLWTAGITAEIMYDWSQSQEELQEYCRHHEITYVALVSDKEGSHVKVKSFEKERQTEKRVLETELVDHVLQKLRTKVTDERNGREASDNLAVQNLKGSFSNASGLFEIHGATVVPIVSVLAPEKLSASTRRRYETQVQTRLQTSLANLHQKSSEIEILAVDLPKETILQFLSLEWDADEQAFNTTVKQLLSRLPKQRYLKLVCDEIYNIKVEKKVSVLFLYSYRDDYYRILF
Structure (SMILES),IC50 [1],IC50 [2],IC50 [3],IC50 [4],IC50 [5],IC50 [6]
"CNc1ncc2cc(-c3cccc(NS(=O)(=O)c4cc(Cl)cnc4OC)c3F)c(C)nc2n1 [Example 3, 5-chloro-N-(2-fluoro-3-(7-methyl-2-(methylamino)pyrido[2,3-d]pyrimidin-6-yl)phenyl)-2-methoxypyridine-3-sulfonamide]",≤ 0.1 µM,≤ 0.1 µM,≤ 0.1 µM,≤ 0.1 µM,≤ 0.1 µM,
CNc1ncc2cc(-c3cc(F)cc(NS(=O)(=O)c4cc(Cl)cnc4OC)c3)c(NC)nc2n1 [Example 11],≤ 0.1 µM,0.1 to 0.5 µM,0.1 to 0.5 µM,≤ 0.1 µM,≤ 0.1 µM,1 to 10 µM
CNc1cc2nc(C)c(-c3cc(NS(=O)(=O)c4cc(Cl)cc(CO)c4Cl)c(F)cc3Br)cc2cn1 [Example 14],≤ 0.1 µM,0.1 to 0.5 µM,1 to 10 µM,0.1 to 0.5 µM,0.5 to 1 µM,1 to 10 µM
CNc1ncc2cc(-c3cccc(NS(=O)(=O)c4cc(Cl)cnc4OC)c3)c(NC)nc2n1 [Example 15],≤ 0.1 µM,0.1 to 0.5 µM,0.1 to 0.5 µM,≤ 0.1 µM,0.1 to 0.5 µM,
CNc1ncc2cc(-c3cc(NS(=O)(=O)c4cc(Cl)cnc4OC)c(F)cc3C)c(C)nc2n1 [Example 17],0.5 to 1 µM,0.1 to 0.5 µM,1 to 10 µM,0.1 to 0.5 µM,1 to 10 µM,1 to 10 µM
CNc1cc2nc(C)c(-c3ccc(F)c(NS(=O)(=O)c4cc(Cl)cc(CO)c4Cl)c3)cc2cn1 [Example 19],≤ 0.1 µM,≤ 0.1 µM,0.1 to 0.5 µM,≤ 0.1 µM,≤ 0.1 µM,1 to 10 µM
CNc1cc2nc(C)c(-c3cc(NS(=O)(=O)c4cc(Cl)cc(CO)c4Cl)c(F)cc3F)cc2cn1 [Example 22],≤ 0.1 µM,≤ 0.1 µM,≤ 0.1 µM,≤ 0.1 µM,≤ 0.1 µM,1 to 10 µM
CNc1cc2nc(C)c(-c3cc(F)cc(NS(=O)(=O)c4cc(Cl)cnc4OC)c3)cc2cn1 [Example 23],≤ 0.1 µM,≤ 0.1 µM,0.1 to 0.5 µM,≤ 0.1 µM,≤ 0.1 µM,1 to 10 µM
CNc1ncc2cc(-c3cc(NS(=O)(=O)c4cc(Cl)cnc4OC)cc(F)c3C)c(C)nc2n1 [Example 26],≤ 0.1 µM,≤ 0.1 µM,≤ 0.1 µM,≤ 0.1 µM,≤ 0.1 µM,1 to 10 µM
CNc1ncc2cc(-c3c(F)ccc(NS(=O)(=O)c4cc(Cl)cnc4OC)c3F)c(C)nc2n1 [Example 27],≤ 0.1 µM,≤ 0.1 µM,≤ 0.1 µM,≤ 0.1 µM,≤ 0.1 µM,1 to 10 µM
CNc1ncc2cc(-c3cc(NS(=O)(=O)c4cc(Cl)cnc4OC)ccc3C)cnc2n1 [Example 30],≤ 0.1 µM,0.1 to 0.5 µM,≤ 0.1 µM,≤ 0.1 µM,≤ 0.1 µM,1 to 10 µM
COc1ncc(Cl)cc1S(=O)(=O)Nc1cccc(-c2ccc3nc(N)ncc3c2)c1F [Example 33],≤ 0.1 µM,≤ 0.1 µM,0.1 to 0.5 µM,≤ 0.1 µM,≤ 0.1 µM,1 to 10 µM
COc1ncc(Cl)cc1S(=O)(=O)Nc1cccc(-c2ccc3nc(NC(C)=O)ncc3c2)c1F [Example 35],≤ 0.1 µM,0.1 to 0.5 µM,≤ 0.1 µM,≤ 0.1 µM,≤ 0.1 µM,1 to 10 µM
CNc1ncc2cc(-c3cccc(NS(=O)(=O)c4cc(Cl)cnc4OC)c3F)ccc2n1 [Example 36],≤ 0.1 µM,≤ 0.1 µM,≤ 0.1 µM,≤ 0.1 µM,≤ 0.1 µM,1 to 10 µM
CNc1ncc2cc(-c3cc(NS(=O)(=O)c4cc(Cl)cnc4OC)ccc3F)c(C)nc2n1 [Example 38],≤ 0.1 µM,0.1 to 0.5 µM,0.1 to 0.5 µM,≤ 0.1 µM,0.1 to 0.5 µM,1 to 10 µM
CNc1ncc2cc(-c3cc(NS(=O)(=O)c4cc(Cl)cnc4OC)ccc3F)c(NC)nc2n1 [Example 39],≤ 0.1 µM,0.1 to 0.5 µM,0.1 to 0.5 µM,≤ 0.1 µM,0.1 to 0.5 µM,1 to 10 µM
CNc1cc2nc(C)c(-c3cc(NS(=O)(=O)c4cc(Cl)cnc4OC)ccc3F)cc2cn1 [Example 44],≤ 0.1 µM,≤ 0.1 µM,≤ 0.1 µM,≤ 0.1 µM,≤ 0.1 µM,1 to 10 µM
CNc1ncc2cc(-c3cc(F)cc(NS(=O)(=O)c4cc(Cl)cnc4OC)c3)c(C)nc2n1 [Example 65],,0.1 to 0.5 µM,0.1 to 0.5 µM,≤ 0.1 µM,0.1 to 0.5 µM,1 to 10 µM
CNc1ncc2cc(-c3cccc(NS(=O)(=O)c4cc(F)cc(CO)c4Cl)c3F)c(NC)nc2n1 [Example 177],≤ 0.1 µM,0.1 to 0.5 µM,≤ 0.1 µM,,,0.1 to 0.5 µM
CNc1ncc2cc(-c3cccc(NS(=O)(=O)c4cc(F)cc(CO)c4F)c3F)c(NC)nc2n1 [Example 178],≤ 0.1 µM,0.1 to 0.5 µM,≤ 0.1 µM,,,1 to 10 µM
